Results on one compound are retold here after patent US8519124B2, “Chemokine receptor antagonists and use thereof” (Ono Pharmaceutical Co., Ltd., priority 2005, dated 2013).

Series [1] has as its system DOPA liposome (artificial lipid membrane). Put plainly: Artificial lipid membrane binding by using Biacore S51 system. The note with it: 50 μM compound. The protocol: Artificial Lipid Membrane Binding Account by Using Biacore (Registered Trademark) S51 System
10 mM of 1,2-Dioleoyl-sn-Glycero-3-Phosphate, Monosodium Salt (hereinafter abbreviated as DOPA) chloroform solution was evaporated to dryness by means of an aspirator, and 0.6 mL of PBS/5% dimethyl sulfoxide (hereinafter abbreviated as DMSO) was added. The chloroform solution was fully suspended by means of a vortex mixer, and the freezing and thawing were repeated for 5 times. Liposome was created by means of a liposome adjustment instrument (manufactured by Avestin Inc.) and 2 syringes, and was diluted to 0.5 mM with PBS/5% DMSO just prior to immobilization.
(ii) Measurement Compound Adjustment
The 38 μL of 1×PBS is added to 2 μL DMSO solution (10 mM), and further the 360 μL 1×PBS/5% DMSO was added; the 50 μM of final concentration in the 1×PBS/5% DMSO was adjusted and measured.
All of the following analysis used Biacore® S51 system; the measurement conditions were set by Biacore S51 Control Soft.
The measurement temperature was set to be 37° C., and the 1×PBS/5% DMSO (pH 7.4 or PH 6.0) was used as a buffer. Series S Sensor Chip L1 was used for a sensor chip. The DOPA was immobilized in one of the measuring spots on the sensor surface, and the central spot was used as a reference.
Immobilization of liposome was conducted at a flow rate of 10 μL/min for about 3 minutes; then the compound was added at a flow rate of 30 μL/min and the interaction was measured. The measurement conditions are as follows:
Assay buffer: PBS/5% DMSO (pH 7.4 or PH 6.0)
Measurement temperature: 37° C.
Sensor chip: Series S Sensor Chip L1
Flow rate: 10 μL/min at the time of the liposome immobilization; 30 μL/min at the time of the measurement of interaction with the compound
Regeneration: 20 mM CHAPS (3-[(3-Cholamidopropyl)dimethylammonio]-1-propanesulfonate), Isopropanol/50 mM sodium hydroxide solution=40/60 (volume ratio) mixture (60 seconds)
The data processing was conducted by means of method of Abdiche et al. (Analytical biochemistry, 328, 233-243 (2004)) by using Biacore S51 Evaluation Soft.
Regarding the value of binding response (RU) in which the value of reference was subtracted, it was divided by a sample molecular weight after minute error of the DMSO concentration included in the sample solution was corrected. In addition, the value obtained here was divided by an amount of capture at the time of the cycle because the value obtained here was proportional to the amount of capture of the liposome; further, the value was multiplied by a million to be considered as a corrected value (Corrected value=1000000)×RU (test compound)/molecular quantity (test compound) RU (liposome)).
Propranolol, Amiodarone, Desipramine, Imipramine and Procaine were added as the controls, and it was recognized that the variation of the binding response was within ca. 10 to 15%.
The compound, in which a value of the binding response after the correction was equal to or more than 150, was determined as positive.

Series [2] in a line: Measurement of maximum plasma level (Cmax) and bioavailability (BA). The class given is in vivo. The note with it: male, Crl:CD(SD), po; rat plasma; orally administered solution 10 mg/kg, fasting. The protocol:
Measurement of Maximum Plasma Level (CMax) and Bioavailability (BA)
A test compound is weighed, dissolved in Solutol (trade name; manufactured by BASF-TAKEDA Vitamins Ltd.)/propylene glycol=7/3 which is heated to 60° C. and adjusted to 20 mg/mL; thereafter, the test compound is diluted by 10 times with distilled water for injection, and further diluted by 2 times with saline solution, by which intravenously administered solution is eventually made. The test compound is weighed, dissolved in Solutol (trade name; manufactured by BASF-TAKEDA Vitamins Ltd.)/propylene glycol=7/3 which is heated to 60° C., and adjusted to 20 mg/mL; thereafter, the test compound is diluted by 10 times with distilled water for injection, by which orally administered solution is eventually made. Intravenous administration is performed by rapid single administration (n=3) of intravenously administered solution (1 mg/kg) from the tail vein of Crl:CD(SD) Rat (male, manufactured by CHARLES RIVER LABORATORIES JAPAN, INC). Oral administration is performed by forced administration (n=3) of orally administered solution (10 mg/kg) into the stomach of Crl:CD(SD) Rat (male, manufactured by CHARLES RIVER LABORATORIES JAPAN, INC.) using a sonde. The administration is conducted under fasting conditions; water is freely ingested. A 0.35 mL blood sample is taken from cervical vein by using Heparinized Syringe at 15 minutes, 30 minutes, 1 hour, 2 hours, 4 hours, 6 hours, 8 hours, and 24 hours after administration. The obtained blood is stored in ice, and after centrifugation at 12,000 rpm for 5 minutes, blood plasma is fractionated. The blood plasma is preserved at a temperature of −80° C. The sample of blood plasma preserved at a temperature of −80° C. is dissolved; inner standard solution (100 μL) and acetonitrile (2 mL) are added to the blood plasma sample 100 μL and stirred; and the sample is centrifuged at 2,500 rpm for 10 minutes. After the supernatant is evaporated to dryness by means of a centrifugal concentrator, 67% dimethyl sulfoxide solution (150 μL) is added to the residue and dissolves them again; and 20 μL of the solution is analyzed by means of LC/MS/MS.
The analysis by means of LC/MS/MS should be performed, for example, under the following conditions:
Measurement device: Waters 2795 (manufactured by Waters Corporation)
Analytical column: Unison UK-C18, 3.0 μm particle size, 2.0 mm×30 mm (manufactured by Imtakt Corporation)
Analytical column temperature: Room temperature
Moving bed: 5 mM IPC-PFAA-7 solution/acetonitrile (9/1→1/9)
Measurement device: Quatro micro API (manufactured by Micromass Communications Inc.)
Method for ionization: ES+
Capillary electric potential: 3.30 kV
Source temperature: 120° C.
Desolvation temperature: 350° C.
The monitor ion which was suitable for each sample was selected.
The concentration transition in the rat blood plasma of the test compound is analyzed by means of non-compartment analysis method by using WinNonlin 4.0.1 (manufactured by Pharsight Corporation) to calculate the maximum blood concentration Cmax and the area under the blood concentration curve AUC.
BA is calculated by means of the following formula: BA(%)={(AUCp.o./Dosep.o.)/(AUCi.v./Dosei.v.)}×100
AUCp.o.: AUC in oral administration
Dosep.o.: Amount of the drug orally administered
AUCi.v.: AUC in intravenous administration
Dosei.v.: Amount of the drug intravenously administered

What is called Cmax is the maximum level reached in the sampled fluid or tissue. For `CC(C)(C)CN1CCC2(CCN(Cc3ccc(C(=O)N(Cc4ncc[nH]4)Cc4ncc[nH]4)cc3)CC2)C1` [Example 8 (114), 4-{[2-(2,2-dimethylpropyl)-2,8-diazaspiro[4.5]dec-8-yl]methyl}-N,N-bis(1H-imidazol-2-ylmethyl)benzamide], in series [1] (DOPA liposome), the “Judgement (phospholipidosis inductive effect)” value is reported as “negative”. The “Corrected value of binding response (RU)” value in series [1] (DOPA liposome on Sensor Chip L1, 37° C., PBS/5% DMSO (pH 7.4 or PH 6.0)) is recorded as 80.7 RU. Besides, the concentration in series [2] peaked (Cmax) at 46 ng/mL.
